Measurements reported in patent US6008372A, “Substituted dinaphthylmethyl and diheteroarylmethylacetyl histidine inhibitors of protein farnesyltransferase” (Warner-Lambert Company, priority 1998, dated 1999).
pIC50: −log10 of the molar value. Where a name gives a salt, the structure may show the parent alone. Read-outs that look alike come from different tables or passages of the source.

Biological target: T1, rat brain farnesyl protein transferase (Rattus norvegicus, UniProt Q02293+Q04631)
T1 construct: 40-fold purified rat brain farnesyl protein transferase; from tissue; host or cells: rat brain
Assay: Protein:farnesyltransferase (PFT/FPT) inhibitory activity assay
Type: biochemical

[1] = Hepes (without 5 mM phosphate), read-out: Farnesyl Protein Transferase Inhibition, Hepes, IC50
[2] = Hepes/5 mM PO4^-3, pH 7.4, read-out: Farnesyl Protein Transferase Inhibition, Hepes/5 mM PO4^-3, IC50

| Compound | pIC50 [1] | pIC50 [2] |
| --- | --- | --- |
| COC(=O)COC(=O)[C@H](Cc1c[nH]cn1)NC(=O)C(Cc1cccc2ccccc12)Cc1cccc2ccccc12 [Example 57, (S)-3-(1H-Imidazol-4-yl)-2-(3-naphthalen-1-yl-2-naphthalen-1-ylmethyl-propionylamino)-propionic acid, methoxycarbonylmethyl ester] | 5.26 | 5.39 |
| COC(=O)[C@H](Cc1c[nH]cn1)NC(=O)C(Cc1csc2ccccc12)Cc1csc2ccccc12 [Example 39, (S)-2-(3-Benzo[b]thiophen-3-yl-2-benzo[b]thiophen-3-ylmethyl-propionylamino)-3-(1H-imidazol-4-yl)-propionic acid, methyl ester] | 5.92 | 6.01 |
| CCCNC(=O)[C@H](Cc1c[nH]cn1)NC(=O)C(Cc1cccc2ccccc12)Cc1cccc2ccccc12 [Example 46] | 5.31 | 5.25 |
| O=C(N[C@@H](Cc1c[nH]cn1)C(=O)OCCc1cccs1)C(Cc1cccc2ccccc12)Cc1cccc2ccccc12 [Example 19, (S)-3-(1H-Imidazol-4-yl)-2-(3-naphthalen-1-yl-2-naphthalen-1-ylmethyl-propionylamino)-propionic acid, 2-thiophen-2-yl-ethyl ester] | 5.96 | 5.96 |
| CCSCCNC(=O)[C@H](Cc1c[nH]cn1)NC(=O)C(Cc1cccc2ccccc12)Cc1cccc2ccccc12 [Example 26, (S)-N-[1-(2-Ethylsulfanyl-ethylcarbamoyl)-2-(1H-imidazol-4-yl)-ethyl]-3-naphthalen-1-yl-2-naphthalen-1-ylmethyl-propionamide] | 4.92 | 5.06 |
| CCN(CC)CCNC(=O)[C@H](Cc1c[nH]cn1)NC(=O)C(Cc1cccc2ccccc12)Cc1cccc2ccccc12 [Example 32] | 4.72 | 4.85 |
| O=C(N[C@@H](Cc1c[nH]cn1)C(=O)NCCN1CCOCC1)C(Cc1cccc2ccccc12)Cc1cccc2ccccc12 [Example 31, (S)-N-[2-(1H-Imidazol-4-yl)-1-(2-morpholin-4-yl-ethylcarbamoyl)-ethyl]-3-naphthalen-1-yl-2-naphthalen-1-ylmethyl-propionamide] | 4.59 | 4.82 |
| CC(C#N)OC(=O)[C@H](Cc1c[nH]cn1)NC(=O)C(Cc1cccc2ccccc12)Cc1cccc2ccccc12 (mixture of isomers) [Example 61, (S)-3-(1H-Imidazol-4-yl)-2-(3-naphthalen-1-yl-2-naphthalen-1-ylmethyl-propionylamino)-propionic acid, (±)-1-cyano-ethyl ester] | 6.19 | 6.21 |
| O=C(N[C@@H](Cc1c[nH]cn1)C(=O)OCc1ccsc1)C(Cc1cccc2ccccc12)Cc1cccc2ccccc12 [Example 20, (S)-3-(1H-Imidazol-4-yl)-2-(3-naphthalen-1-yl-2-naphthalen-1-ylmethyl-propionylamino)-propionic acid, thiophen-3-ylmethyl ester] | 5.46 | 5.62 |
| COCn1cncc1C[C@H](NC(=O)C(Cc1cccc2ccccc12)Cc1cccc2ccccc12)C(=O)OC [Example 60, (S)-3-(3-Methoxymethyl-3H-imidazol-4-yl)-2-(3-naphthalen-1-yl-2-naphthalen-1-ylmethyl-propionylamino)-propionic acid, methyl ester] | 6.03 | 6.00 |
| O=C(N[C@@H](Cc1c[nH]cn1)C(=O)NCCc1ccccc1)C(Cc1cccc2ccccc12)Cc1cccc2ccccc12 [Example 50] | 5.32 | 5.22 |
| C#CCOC(=O)[C@H](Cc1c[nH]cn1)NC(=O)C(Cc1cccc2ccccc12)Cc1cccc2ccccc12 [Example 16, (S)-3-(1H-Imidazol-4-yl)-2-(3-naphthalen-1-yl-2-naphthalen-1-ylmethyl-propionylamino)-propionic acid, prop-2-ynyl ester] | 6.30 | 6.23 |
| O=C(N[C@@H](Cc1c[nH]cn1)C(=O)OCCO)C(Cc1cccc2ccccc12)Cc1cccc2ccccc12 [Example 42, (S)-3-(1H-Imidazol-4-yl)-2-(3-naphthalen-1-yl-2-naphthalen-1-ylmethyl-propionylamino)-propionic acid, 2-hydroxy-ethyl ester, trifluoroacetate salt] | 5.74 | 5.89 |
| O=C(N[C@@H](Cc1c[nH]cn1)C(=O)OCCN1CCOCC1)C(Cc1cccc2ccccc12)Cc1cccc2ccccc12 [Example 22, (S)-3-(1H-Imidazol-4-yl)-2-(3-naphthalen-1-yl-2-naphthalen-1-ylmethyl-propionylamino)-propionic acid, 2-morpholin-4-yl-ethyl ester] | 5.24 | 5.37 |

Second part, the compound after the results:

| pIC50 [1] | pIC50 [2] | Compound |
| --- | --- | --- |
| 6.54 | 6.43 | N#CCCOC(=O)[C@H](Cc1c[nH]cn1)NC(=O)C(Cc1cccc2c1CCCC2)Cc1cccc2c1CCCC2 [Example 49, (S)-3-(1H-Imidazol-4-yl)-2-[3-(5,6,7,8-tetrahydro-naphthalen-1-yl)-2-(5,6,7,8-tetrahydro-naphthalen-1-ylmethyl)-propionylamino]-propionic acid, 2-cyano-ethyl ester] |
| 6.11 | 6.07 | O=C(N[C@@H](Cc1c[nH]cn1)C(=O)NCCOCc1ccccc1)C(Cc1cccc2c1CCCC2)Cc1cccc2c1CCCC2 [Example 38, (S)-N-[1-(2-Benzyloxy-ethylcarbamoyl)-2-(1H-imidazol-4-yl)-ethyl]-3-(5,6,7,8-tetrahydro-naphthalen-1-yl)-2-(5,6,7,8-tetrahydro-naphthalen-1-ylmethyl)-propionamide] |
| 5.49 | 5.43 | O=C(N[C@@H](Cc1c[nH]cn1)C(=O)NCCO)C(Cc1cccc2ccccc12)Cc1cccc2ccccc12 [Example 29, (S)-N-[1-(2-Hydroxy-ethylcarbamoyl)-2-(1H-imidazol-4-yl)-ethyl]-3-naphthalen-1-yl-2-naphthalen-1-ylmethyl-propionamide] |
| 5.59 | 5.49 | CC(=O)NCCSC(=O)[C@H](Cc1c[nH]cn1)NC(=O)C(Cc1cccc2ccccc12)Cc1cccc2ccccc12 [Example 40, (S)-3-(1H-Imidazol-4-yl)-2-(3-naphthalen-1-yl-2-naphthalen-1-ylmethyl-propionylamino)-thiopropionic acid, S-(2-acetylamino-ethyl)ester] |
| 5.28 | 5.37 | CC(C)=CCOC(=O)[C@H](Cc1c[nH]cn1)NC(=O)C(Cc1cccc2ccccc12)Cc1cccc2ccccc12 [Example 55, (S)-3-(1H-Imidazol-4-yl)-2-(3-naphthalen-1-yl-2-naphthalen-1-ylmethyl-propionylamino)-propionic acid 3-methyl-but-2-enyl ester] |
| 5.89 | 5.96 | CCCCOC(=O)[C@H](Cc1c[nH]cn1)NC(=O)C(Cc1cccc2ccccc12)Cc1cccc2ccccc12 [Example 9, (S)-3-(1H-Imidazol-4-yl)-2-(3-naphthalen-1-yl-2-naphthalen-1-ylmethyl-propionylamino)-propionic acid, butyl ester] |
| 6.43 | 6.44 | COC(=O)[C@H](Cc1c[nH]cn1)NCC(Cc1cccc2ccccc12)Cc1cccc2ccccc12 [Example 56, (S)-3-(1H-Imidazol-4-yl)-2-(3-naphthalen-1-yl-2-naphthalen-1-ylmethyl-propylamino)-propionic acid methyl ester] |
| 4.92 | 5.00 | COC(=O)[C@@H](Cc1c[nH]cn1)NC(=O)C(Cc1cccc2ccccc12)Cc1cccc2ccccc12 [Example 2, (R)-3-(1H-Imidazol-4-yl)-2-(3-naphthalen-1-yl-2-naphthalen-1-ylmethyl-propionylamino)-propionic acid, methyl ester] |
| 5.25 | 5.42 | CN(C)C(=O)[C@H](Cc1c[nH]cn1)NC(=O)C(Cc1cccc2ccccc12)Cc1cccc2ccccc12 [Example 43, (S)-N-[1-Dimethylcarbamoyl-2-(1H-imidazol-4-yl)-ethyl]-3-naphthalen-1-yl-2-naphthalen-1-ylmethyl-propionamide] |
| 6.26 | 6.30 | OC[C@H](Cc1c[nH]cn1)NCC(Cc1cccc2ccccc12)Cc1cccc2ccccc12 [Example 62, (S)-3-(1H-Imidazol-4-yl)-2-(3-naphthalen-1-yl-2-naphthalen-1-ylmethyl-propylamino)-propan-1-ol] |
| 4.68 | 5.05 | CCN(CC)CCOC(=O)[C@H](Cc1c[nH]cn1)NC(=O)C(Cc1cccc2ccccc12)Cc1cccc2ccccc12 [Example 21, (S)-3-(1H-Imidazol-4-yl)-2-(3-naphthalen-1-yl-2-naphthalen-1-ylmethyl-propionylamino)-propionic acid, 2-diethylamino-ethyl ester] |
| 6.21 | 6.34 | CNC(=O)[C@H](Cc1cncn1C)NC(=O)C(Cc1cccc2ccccc12)Cc1cccc2ccccc12 [Example 64, (S)-N-[1-Methylcarbamoyl-2-(3-methyl-3H-imidazol-4-yl)-ethyl]-3-naphthalen-1-yl-2-naphthalen-1-ylmethyl-propionamide] |
| 5.09 | 5.38 | O=C(N[C@@H](Cc1c[nH]cn1)C(=O)NCCCn1ccnc1)C(Cc1cccc2ccccc12)Cc1cccc2ccccc12 [Example 28] |
| 5.68 | 5.77 | CCCCc1nc(COC(=O)[C@H](Cc2c[nH]cn2)NC(=O)C(Cc2cccc3ccccc23)Cc2cccc3ccccc23)c[nH]1 [Example 13, (S)-3-(1H-Imidazol-4-yl)-2-(3-naphthalen-1-yl-2-naphthalen-1-ylmethyl-propionylamino)-propionic acid, 2-butyl-1H-imidazol-4-ylmethyl ester] |
| 5.72 | 5.82 | O=C(N[C@@H](Cc1c[nH]cn1)C(=O)NCCn1ccnc1)C(Cc1cccc2ccccc12)Cc1cccc2ccccc12 [Example 25, (S)-N-[2-(1H-Imidazol-4-yl)-1-(2-imidazol-1-yl-ethylcarbamoyl)-ethyl]-3-naphthalen-1-yl-2-naphthalen-1-ylmethyl-propionamide] |
